Active and inactive are the calls of the source. The rule behind the calls is not given here.
Assays:
[1] = Acute toxicity in ICR mouse assessed as change in kidney weight at 1000 to 10000 mg/kg,po and measured after 14 days; type: organism-based; conditions: in vivo, 336 h, dose 1000-10000 mg/kg, time 14 day
[2] = test system: DU-145; test: Antitumor activity against human DU-145 xenografted in BALB/c nude mouse as downregulation of c-MYC level in tumor at 100 to 200 mg/kg,po administrated once daily for 21 days by Western blot analysis; type: functional, organism-based; conditions: dose 100-200 mg/kg, time 21.0 day
[3] = test system: DU-145; test: Antitumor activity against human DU-145 xenografted in BALB/c nude mouse as upregulation of p53 level in tumor at 100 to 200 mg/kg,po administrated once daily for 21 days by Western blot analysis; type: functional, organism-based; conditions: dose 100-200 mg/kg, time 21.0 day
[4] = test system: DU-145; test: Antitumor activity against human DU-145 xenografted in BALB/c nude mouse as upregulation of cleaved PARP level in tumor at 100 to 200 mg/kg,po administrated once daily for 21 days by Western blot analysis; type: functional, organism-based; conditions: dose 100-200 mg/kg, time 21.0 day
[5] = molecular target: T1, Dual specificity tyrosine-phosphorylation-regulated kinase 2 (Homo sapiens) (UniProt Q92630); test: Inhibition of DYRK2 in human DU-145 cells assessed as reduction in 4E-BP1 phosphorylation at 2 to 8 uM incubated for 24 hrs by Western blot analysis; type: cell-based; conditions: dose 2-8 µM
T1 sequence (whole entry): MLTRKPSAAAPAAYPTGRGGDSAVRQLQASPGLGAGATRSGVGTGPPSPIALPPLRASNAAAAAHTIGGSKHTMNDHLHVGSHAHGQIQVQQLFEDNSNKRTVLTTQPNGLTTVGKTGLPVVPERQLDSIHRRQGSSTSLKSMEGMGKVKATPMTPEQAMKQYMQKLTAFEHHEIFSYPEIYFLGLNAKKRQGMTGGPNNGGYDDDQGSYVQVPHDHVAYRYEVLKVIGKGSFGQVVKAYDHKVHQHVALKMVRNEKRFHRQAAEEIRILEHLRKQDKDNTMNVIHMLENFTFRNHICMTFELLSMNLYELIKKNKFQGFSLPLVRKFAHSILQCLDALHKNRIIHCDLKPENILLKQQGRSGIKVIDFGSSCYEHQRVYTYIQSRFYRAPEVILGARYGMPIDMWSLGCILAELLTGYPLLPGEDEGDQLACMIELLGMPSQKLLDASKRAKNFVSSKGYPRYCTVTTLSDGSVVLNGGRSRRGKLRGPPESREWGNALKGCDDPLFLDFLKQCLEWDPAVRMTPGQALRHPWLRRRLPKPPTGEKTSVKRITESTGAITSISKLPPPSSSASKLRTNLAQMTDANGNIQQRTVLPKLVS

[6] = test system: DU-145; test: Induction of apoptosis in human DU-145 cells assessed as apoptotis rate at 2 uM incubated for 24 hrs by Annexin V-FITC and PI staining based flow cytometry (Rvb= 4.36%); type: functional
[7] = test system: CWR22R; test: Antiproliferative activity against human 22Rv1 cells assessed as reduction in c-Myc expression level at 2 to 8 uM incubated for 24 hrs by Western blot analysis; type: functional, cell-based; conditions: dose 2-8 µM
[8] = test system: CWR22R; test: Induction of cell cycle arrest in human 22Rv1 cells assessed as accumulation of cells at S phase at 1 uM incubated for 24 hrs by propidium iodide based flow cytometric analysis (Rvb=20.51 %); type: functional
[9] = test system: CWR22R; test: Induction of cell cycle arrest in human 22Rv1 cells assessed as accumulation of cells at S phase at 4 uM incubated for 24 hrs by propidium iodide based flow cytometric analysis (Rvb=20.51 %); type: functional
[10] = test system: DU-145; test: Antiproliferative activity against human DU-145 cells assessed as cell growth inhibition at 2 to 8 uM incubated for 5 days by microplate reader analysis; type: functional, cell-based; conditions: dose 2-8 µM, time 5.0 day
[11] = test system: DU-145; test: Antimigratory activity against human DU-145 cells assessed as upregulation of E-cadherin expression level at 2 to 8 uM incubated for 24 hrs by Western blot analysis; type: functional, cell-based; conditions: dose 2-8 µM
[12] = test system: CWR22R; test: Antiproliferative activity against human 22Rv1 cells assessed as increase in p27 expression level at 2 to 8 uM incubated for 24 hrs by Western blot analysis; type: functional, cell-based; conditions: dose 2-8 µM
[13] = test system: CWR22R; test: Induction of apoptosis in human 22Rv1 cells assessed as apoptotis rate at 4 uM incubated for 24 hrs by Annexin V-FITC and PI staining based flow cytometry (Rvb= 3.08%); type: functional
[14] = Acute toxicity in ICR mouse assessed as appearance of lesions in liver at 5000 to 10000 mg/kg,po and measured after 14 days by H and E staining based microscopic analysis; type: organism-based; conditions: in vivo, 336 h, dose 5000-10000 mg/kg, time 14 day
[15] = molecular target: T1, Dual specificity tyrosine-phosphorylation-regulated kinase 2 (Homo sapiens); test: Inhibition of DYRK2 in human 22Rv1 cells assessed as reduction in 4E-BP1 phosphorylation at 2 to 8 uM incubated for 24 hrs by Western blot analysis; type: cell-based; conditions: dose 2-8 µM
[16] = test system: CWR22R; test: Induction of cell cycle arrest in human 22Rv1 cells assessed as accumulation of cells at G2 phase at 1 uM incubated for 24 hrs by propidium iodide based flow cytometric analysis (Rvb=24.21 %); type: functional
[17] = Acute toxicity in ICR mouse assessed as appearance of lesions in heart at 5000 to 10000 mg/kg,po and measured after 14 days by H and E staining based microscopic analysis; type: organism-based; conditions: in vivo, 336 h, dose 5000-10000 mg/kg, time 14 day
[18] = test system: CWR22R; test: Induction of apoptosis in human 22Rv1 cells assessed as increase in p53 level at 2 to 8 uM incubated for 24 hrs by Western blot analysis; type: functional, cell-based; conditions: dose 2-8 µM
[19] = test system: DU-145; test: Induction of apoptosis in human DU-145 cells assessed as increase in p53 level at 2 to 8 uM incubated for 24 hrs by Western blot analysis; type: functional, cell-based; conditions: dose 2-8 µM
[20] = test system: DU-145; test: Induction of apoptosis in human DU-145 cells assessed as apoptotis rate at 4 uM incubated for 24 hrs by Annexin V-FITC and PI staining based flow cytometry (Rvb= 4.36%); type: functional
[21] = test system: CWR22R; test: Induction of cell cycle arrest in human 22Rv1 cells assessed as accumulation of cells at G2 phase at 4 uM incubated for 24 hrs by propidium iodide based flow cytometric analysis (Rvb=24.21 %); type: functional
[22] = test system: CWR22R; test: Antiproliferative activity against human 22Rv1 cells assessed as inhibition of cell proliferation incubated for 3 days by CCK-8 assay; type: functional, cell-based; conditions: 22Rv1, 72 h
[23] = test system: CWR22R; test: Induction of cell cycle arrest in human 22Rv1 cells assessed as accumulation of cells at G1 phase at 2 uM incubated for 24 hrs by propidium iodide based flow cytometric analysis (Rvb= 55.28%); type: functional
[24] = Metabolic stability in human liver microsomes assessed as half life in presence of NADPH incubated up to 60 mins by LC-MS/MS analysis; type: ADME, Microsome
[25] = test system: CWR22R; test: Antimigratory activity against human 22Rv1 cells assessed as inhibition of cell migration at 1 to 8 uM incubated for 24 hrs by transwell migration assay; type: functional, cell-based; conditions: dose 1-8 µM
[26] = test system: DU-145; test: Induction of cell cycle arrest in human DU-145 cells assessed as accumulation of cells at G1 phase at 2 uM incubated for 24 hrs by propidium iodide based flow cytometric analysis (Rvb= 53.46%); type: functional
[27] = Acute toxicity in ICR mouse assessed as change in lung weight at 1000 to 10000 mg/kg,po and measured after 14 days; type: organism-based; conditions: in vivo, 336 h, dose 1000-10000 mg/kg, time 14 day

Cl.O=C(c1ccc(Nc2ncc(F)c(-c3ccc4scnc4c3)n2)nc1)N1CCNCC1
Activity [1]: Non-Toxic | Activity [2]: Active | Activity [3]: Active | Activity [4]: Active | inhibition [5]: Active | Activity [6]: 6.73% | Activity [7]: Active | Activity [8]: 16.48% | Activity [9]: 13.85% | Activity [10]: Active | Activity [11]: Active | Activity [12]: Active | Activity [13]: 21.78% | Activity [14]: Non-Toxic | inhibition [15]: Active | Activity [16]: 23.01% | Activity [17]: Non-Toxic | Activity [18]: Active | Activity [19]: Active | Activity [20]: 7.86% | Activity [21]: 19.42% | IC50 [22]: 2.56 µM | Activity [23]: 62.88% | half-life [24]: 1.3 h | Activity [25]: Active | Activity [26]: 61.07% | Activity [27]: Non-Toxic

From ChEMBL document CHEMBL5247641, “Discovery of Potent DYRK2 Inhibitors with High Selectivity, Great Solubility, and Excellent Safety Properties for the Treatment of Prostate Cancer” (J Med Chem, 2023)
